Assay results taken from the supplement of paper PMC10307832.

What was measured:
Test in all cases: relative viability (nuclei count vs DMSO), 5 days (fraction); higher = more cells survive
Elesclomol = compound: CN(NC(=O)CC(=O)NN(C)C(=S)c1ccccc1)C(=S)c1ccccc1 [Elesclomol]
In short: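 Viability here means nuclei in treated wells divided by nuclei in vehicle wells, reported as the median across plates. Only plates with control CV below 25% and at least one doubling passed. Lung cancer cell lines in 1536-well plates were exposed to five √10-spaced library-drug doses for 5 days and counted from 4× Hoechst images in MetaXpress.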

Elesclomol + Navitoclax = compound: CN(NC(=O)CC(=O)NN(C)C(=S)c1ccccc1)C(=S)c1ccccc1 [Elesclomol] + CC1(C)CCC(c2ccc(Cl)cc2)=C(CN2CCN(c3ccc(C(=O)NS(=O)(=O)c4ccc(N[C@H](CCN5CCOCC5)CSc5ccccc5)c(S(=O)(=O)C(F)(F)F)c4)cc3)CC2)C1 [Navitoclax] (partner 0.5 µM)
In short: (§1)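 Lung cancer cell lines in 1536-well plates were dosed by pin tool the day after seeding, either with one drug alone or with a fixed anchor-drug dose plus five library-drug doses (not always all listed) in √10 steps. After 5 days, cells were fixed and their nuclei stained in one step (final 0.05% Triton X-100, 1% formaldehyde, 1 ug/ml Hoechst), then counted on 4× images. Relative viability is the nuclei count in treated wells divided by that in vehicle wells. Values are medians of duplicate plates.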

Elesclomol + Lapatinib = compound: CN(NC(=O)CC(=O)NN(C)C(=S)c1ccccc1)C(=S)c1ccccc1 [Elesclomol] + CS(=O)(=O)CCNCc1ccc(-c2ccc3ncnc(Nc4ccc(OCc5cccc(F)c5)c(Cl)c4)c3c2)o1 [Lapatinib] (partner 2 µM)
In short: as §1

Elesclomol + Dasatinib = compound: CN(NC(=O)CC(=O)NN(C)C(=S)c1ccccc1)C(=S)c1ccccc1 [Elesclomol] + Cc1nc(Nc2ncc(C(=O)Nc3c(C)cccc3Cl)s2)cc(N2CCN(CCO)CC2)n1 [Dasatinib] (partner 0.075 µM)
In short: as §1

Elesclomol + Vorinostat = compound: CN(NC(=O)CC(=O)NN(C)C(=S)c1ccccc1)C(=S)c1ccccc1 [Elesclomol] + O=C(CCCCCCC(=O)Nc1ccccc1)NO [Vorinostat] (partner 1 µM)
In short: as §1

Row | Cell Line | relative viability (Elesclomol; 0.003162 µM) | relative viability (Elesclomol; 0.01 µM) | relative viability (Elesclomol; 0.03162 µM) | relative viability (Elesclomol; 0.1 µM) | relative viability (Elesclomol + Navitoclax; first compound 0.003162 µM) | relative viability (Elesclomol + Navitoclax; first compound 0.01 µM) | relative viability (Elesclomol + Navitoclax; first compound 0.03162 µM) | relative viability (Elesclomol + Navitoclax; first compound 0.1 µM) | relative viability (Elesclomol + Lapatinib; first compound 0.003162 µM) | relative viability (Elesclomol + Lapatinib; first compound 0.01 µM) | relative viability (Elesclomol + Lapatinib; first compound 0.03162 µM) | relative viability (Elesclomol + Lapatinib; first compound 0.1 µM) | relative viability (Elesclomol + Dasatinib; first compound 0.003162 µM) | relative viability (Elesclomol + Dasatinib; first compound 0.01 µM) | relative viability (Elesclomol + Dasatinib; first compound 0.03162 µM) | relative viability (Elesclomol + Dasatinib; first compound 0.1 µM) | relative viability (Elesclomol + Vorinostat; first compound 0.003162 µM) | relative viability (Elesclomol + Vorinostat; first compound 0.01 µM) | relative viability (Elesclomol + Vorinostat; first compound 0.03162 µM) | relative viability (Elesclomol + Vorinostat; first compound 0.1 µM)
1 | NCI-H2023 | 0.907 | 0.305 | 0.204 | 0.0874 | 0.99 | 0.455 | 0.111 | 0.102 | 0.384 | 0.266 | 0.0556 | 0.0486 | 0.421 | 0.117 | 0.0528 | 0.0413 | 0.418 | 0.0842 | 0.0465 | 0.0461
2 | NCI-H1650 | 0.394 | 0.281 | 0.16 | 0.114 | 0.734 | 0.331 | 0.168 | 0.0893 | 0.38 | 0.277 | 0.184 | 0.17 | 0.21 | 0.17 | 0.156 | 0.154 | 0.3 | 0.22 | 0.146 | 0.11
3 | NCI-H1395 | 0.972 | 0.475 | 0.279 | 0.265 | 1.09 | 0.475 | 0.286 | 0.469 | 1.01 | 0.368 | 0.289 | 0.304 | 0.387 | 0.304 | 0.266 | 0.22 | 0.814 | 0.46 | 0.245 | 0.215
4 | NCI-H2087 | 0.987 | 0.743 | 0.624 | 0.313 | 0.924 | 0.728 | 0.499 | 0.469 | 0.895 | 0.519 | 0.58 | 0.569 | 0.815 | 0.502 | 0.41 | 0.152 | 0.528 | 0.448 | 0.431 | 0.313
5 | NCI-H838 | 0.959 | 0.883 | 0.792 | 0.454 | 1.15 | 1.06 | 0.962 | 0.739 | 0.984 | 0.838 | 0.683 | 0.555 | 0.287 | 0.296 | 0.224 | 0.177 | 0.723 | 0.706 | 0.609 | 0.303
6 | NCI-H1793 | 0.893 | 0.635 | 0.892 | 0.251 | 0.349 | 0.349 | 0.382 | 0.135 | 0.657 | 0.613 | 0.651 | 0.112 | 0.358 | 0.268 | 0.373 | 0.136 | 0.808 | 0.623 | 0.613 | 0.117
7 | LC-2-ad | 0.963 | 0.568 | 0.241 | 0.19 | 0.521 | 0.213 | 0.062 | 0.099 | 0.876 | 0.334 | 0.111 | 0.0969 | 0.492 | 0.196 | 0.202 | 0.179 | 0.642 | 0.608 | 0.24 | 0.169
8 | HCC-78 | 0.87 | 1 | 0.861 | 0.926 | 0.778 | 0.755 | 0.793 | 0.627 | 0.704 | 0.65 | 0.932 | 0.798 | 0.28 | 0.407 | 0.319 | 0.34 | 0.46 | 0.38 | 0.36 | 0.553
9 | LOU-NH91 | 1.06 | 0.856 | 0.798 | 0.764 | 0.672 | 0.465 | 0.307 | 0.282 | 0.733 | 0.669 | 0.574 | 0.478 | 0.546 | 0.52 | 0.428 | 0.432 | 1.02 | 0.826 | 0.782 | 0.66
10 | NCI-H1734 | 0.976 | 0.794 | 0.32 | 0.127 | 0.852 | 0.841 | 0.636 | 0.0859 | 1.11 | 0.893 | 0.294 | 0.125 | 0.473 | 0.421 | 0.144 | 0.113 | 0.859 | 0.592 | 0.207 | 0.101
11 | NCI-H520 | 1.03 | 0.87 | 0.584 | 0.134 | 1.08 | 0.939 | 0.587 | 0.162 | 0.91 | 0.666 | 0.373 | 0.0913 | 0.166 | 0.158 | 0.138 | 0.0789 | 0.775 | 0.662 | 0.225 | 0.0994
12 | UMC-11 | 1.05 | 0.939 | 0.709 | 0.612 | 0.277 | 0.311 | 0.22 | 0.143 | 0.952 | 0.837 | 0.505 | 0.328 | 0.439 | 0.423 | 0.374 | 0.235 | 0.391 | 0.333 | 0.411 | 0.255
13 | NCI-H596 | 0.983 | 0.842 | 0.865 | 0.243 | 0.912 | 0.941 | 0.877 | 0.189 | 1.04 | 1.11 | 1.03 | 0.381 | 0.606 | 0.545 | 0.575 | 0.21 | 0.632 | 0.577 | 0.485 | 0.219
14 | NCI-H1755 | 1.01 | 0.965 | 0.997 | 0.801 | 0.968 | 0.847 | 0.82 | 0.158 | 1.05 | 0.939 | 0.887 | 0.236 | 0.446 | 0.357 | 0.433 | 0.214 | 0.742 | 0.637 | 0.787 | 0.364
15 | SK-LU-1 | 1.07 | 0.779 | 0.659 | 0.287 | 1.08 | 0.704 | 0.167 | 0.172 | 0.908 | 0.518 | 0.333 | 0.105 | 0.199 | 0.197 | 0.161 | 0.0738 | 0.83 | 0.659 | 0.471 | 0.336
16 | NCI-H647 | 1 | 0.617 | 0.377 | 0.062 | 1.05 | 0.665 | 0.191 | 0.0372 | 1.08 | 0.765 | 0.267 | 0.0231 | 0.172 | 0.142 | 0.0544 | 0.0326 | 0.24 | 0.337 | 0.133 | 0.0479
17 | SW 1573 | 0.795 | 0.267 | 0.121 | 0.0819 | 0.918 | 0.102 | 0.0652 | 0.0513 | 1.04 | 0.517 | 0.185 | 0.135 | 0.192 | 0.094 | 0.043 | 0.0143 | 0.331 | 0.107 | 0.112 | 0.0259
18 | HCC-15 | 0.964 | 0.828 | 0.626 | 0.231 | 0.73 | 0.656 | 0.439 | 0.373 | 0.869 | 0.684 | 0.574 | 0.284 | 0.533 | 0.386 | 0.169 | 0.0668 | 0.81 | 0.776 | 0.645 | 0.265
19 | NCI-H2126 | 0.962 | 0.934 | 0.807 | 0.556 | 0.89 | 0.826 | 0.908 | 0.827 | 0.731 | 0.698 | 0.791 | 0.766 | 0.659 | 0.512 | 0.3 | 0.215 | 0.852 | 0.642 | 0.745 | 0.577
20 | NCI-H2085 | 0.998 | 0.873 | 0.569 | 0.385 | 1.22 | 0.725 | 0.657 | 0.312 | 0.761 | 0.521 | 0.397 | 0.376 | 0.242 | 0.235 | 0.273 | 0.235 | 0.835 | 0.783 | 0.451 | 0.308
21 | BEN | 0.937 | 0.677 | 0.344 | 0.307 | 0.049 | 0.0566 | 0.0364 | 0.0268 | 0.577 | 0.335 | 0.247 | 0.197 | 0.359 | 0.204 | 0.219 | 0.159 | 0.585 | 0.563 | 0.448 | 0.385
22 | PC-14 | 0.923 | 0.261 | 0.0507 | 0.039 | 0.977 | 0.719 | 0.0635 | 0.0562 | 0.337 | 0.295 | 0.228 | 0.0843 | 0.0703 | 0.0327 | 0.0099 | 0.0111 | 0.0807 | 0.0343 | 0.0162 | 0.0149
23 | NCI-H2228 | 0.923 | 0.881 | 0.435 | 0.078 | 0.739 | 0.586 | 0.325 | 0.0519 | 0.953 | 0.66 | 0.33 | 0.103 | 0.545 | 0.269 | 0.2 | 0.039 | 0.628 | 0.177 | 0.125 | 0.0717
24 | COR-L23 | 0.969 | 0.629 | 0.461 | 0.256 | 0.9 | 0.616 | 0.461 | 0.0852 | 0.885 | 0.484 | 0.434 | 0.178 | 0.439 | 0.254 | 0.141 | 0.068 | 0.378 | 0.156 | 0.144 | 0.0678
25 | NCI-H1915 | 0.994 | – | 1 | 0.606 | 0.784 | – | 0.792 | 0.799 | 0.986 | – | 0.948 | 0.78 | 0.337 | – | 0.317 | 0.21 | 0.517 | 0.324 | 0.573 | 0.205
